Experimental data as given in patent US12017917B2, “Composition, particulate materials and methods for making particulate materials” (THE UNIVERSITY OF QUEENSLAND, priority 2015, dated 2024).

Legend:
[1] = UV protection of ivermectin (HPLC); format: physicochemical; details: free or loaded into particles, UV irradiation 3 h
Description: To investigate the UV protection properties of the silica particles toward ivermectin these nano-formulations as well as pure (free) ivermectin were treated under UV irradiation for 3 h. The samples before and after UV irradiation were analysed using high performance liquid chromatography (HPLC) to identify their compositions. […] This may result from the fact that ivermectin is only partially loaded into the internal cavity of the MSHS-SS particles, resulting in only partial protection.

[2] = tested on: Escherichia coli (E. coli); assay: In vitro antibacterial activity of VAN formulations (OD 600 nm); format: cell-based; details: VAN content 25 μg ml^−1, after 18 h
Description: The use of nanoparticles as a delivery vehicle for antibiotics provides a promising strategy through prolonged drug circulation half-life, increased availability of drugs interacting with membrane molecules and promoted sustained drug release. VAN is an antibiotic useful for the treatment of a number of bacterial infections since it inhibits the cell wall synthesis in susceptible bacteria. […] The in vitro antibacterial activity of VAN, MHS200-VAN and RMHS200-VAN was evaluated by monitoring the optical density (OD) at 600 nm of a bacterial suspension. E. coli (1×10^6 CFU mL^−1) was incubated in Luria-Bertani (LB) medium in a 1.5 ml centrifuge tube at various concentrations of VAN for 18 h. […] This value reduced to 20 μg ml^−1 for RMHS200-VAN which is lower than the dosage used with VAN conjugated MCM-41 (200 μg ml^−1) in in-vitro E. coli culture at 18 h. In a separate experiment, MHS200-VAN, RMHS200-VAN and free VAN with the same VAN content of 25 μg ml^−1 were incubated with 1×10^6 CFU mL^−1 E. Coli in LB media and OD was measured as a function of time.

[3] = tested on: E. coli; assay: In vitro antibacterial activity of lysozyme formulations (OD); format: cell-based; details: E. coli 5×10^6 CFU mL^−1, 24 h
Description: The in vitro antibacterial activity of free lysozyme and lysozyme loaded silica particles formulated using the above procedure were compared by the optical density (OD) measurement. E. coli (5×10^6 CFU mL^−1) was incubated with various concentrations of lysozyme and corresponding lysozyme loaded silica particles for 24 h. […] In contrast, the MIC of free lysozyme towards E. coli cannot be achieved even at the concentration as high as […].

[4] = tested on: E. coli; assay: Long-term bacterial inhibition, bacteria kinetic test under batch culture; format: cell-based; details: lysozyme 700 μg·mL^−1, 3 days
[5] = Release test of nano-spinosad in water (UV-Vis 248 nm); format: physicochemical; details: 25° C.
Description: In a release test, 2.67 mg nano-spinosad-X (containing 1 mg spinosad) was dispersed in 1 ml distilled water, respectively. The mixtures were kept at 25° C. incubator at 200 rpm. The supernatants were collected at different time and the released amount of spinosad was measured and evaluated by using a UV-Vis spectrophotometer at a wavelength of 248 nm. The release amount of pure spinosad in water was also tested using the same procedure.
The release profile of both pure spinosad and nano-spinosad were tested in water. […] On the other hand, for pure spinosad, only 2.4% of spinosad was released at 5 min while the cumulative release is less than 8% even at 540 min. […] Consequently, the release behaviour of spinosad is improved compared to the pure spinosad. The fast release of a higher concentration of spinosad is expected to be beneficial for the development of an “effective-immediately” nano-spinosad formulation.

[6] = UV-stability test of nano-spinosad (HPLC); format: physicochemical; details: UV 365 nm, 2 h
Description: In this test, 1.2 mg pure spinosad and 4.2 mg nano-spinosad-0.4 (containing 1.2 mg spinosad) were added in two transparent quartz containers, respectively. The using of quartz containers is to minimized the shielding of UV light from the containers. Each of the sample was placed under the UV light with a wavelength of 365 nm and power of 17.77 mV cm^−3. All samples were irradiated by the UV light for 2 hours. After the irradiation, the spinosad and its degradation products were extracted by acetonitrile (ACN) for three times and the final concentration was diluted to. 0.5 mg/ml dispersed in 1 ml distilled water. The UV degradation conditions of both pure spinosad and nano-spinosad-0.4 were tested by high-performance liquid chromatography (HPLC) using ACN as the mobile phase.
The UV stability of nano-spinosad was studied. Both spinosad and nano-spinosad were irradiated under UV light (wavelength 365 nm, 17.77 mV/cm^3) for 2 h followed by HPLC which was used to monitor the product after UV treatment utilizing ACN as the extraction media and mobile phase. […] An additional peak at retention time of 1.5 min was also observed in the pure spinosad group, which can be attributed to the degraded product. This observation is in accordance with literature reports, indicating spinosad itself is UV labile.

[7] = tested on: cattle tick, Rhipicephalus microplus; assay: Larval Immersion Test on cattle tick larvae; format: in vivo; details: Assay 3, 24 h
Description: The in vitro effects of spinosad and nano-spinosad on the cattle tick, Rhipicephalus microplus were evaluated. The test was conducted at Biosecurity Sciences Laboratory (Queensland Government) using a standard Larval Immersion Test using organic solvent to extract the actives.
The test was conducted at Biosecurity Sciences Laboratory (Queensland Government) using a standard Larval Immersion Test. In the Larval Immersion Test, both spinosad and nano-Spinsad were firstly dissolved in organic solvent (2% Triton X-100 in acetone) to extract the actives for stock solution (10 mg/ml) and then be diluted in water. […] Three assays were conducted to narrow the LC ranges.

## ivermectin [Free ivermectin]
[1]
  degradation of ivermectin after UV irradiation (HPLC): fully degraded

## CN[C@H](CC(C)C)C(=O)N[C@H]1C(=O)N[C@@H](CC(N)=O)C(=O)N[C@H]2C(=O)N[C@H]3C(=O)N[C@H](C(=O)N[C@H](C(=O)O)c4cc(O)cc(O)c4-c4cc3ccc4O)[C@H](O)c3ccc(c(Cl)c3)Oc3cc2cc(c3O[C@@H]2O[C@H](CO)[C@@H](O)[C@H](O)[C@H]2O[C@H]2C[C@](C)(N)[C@H](O)[C@H](C)O2)Oc2ccc(cc2Cl)[C@H]1O [free VAN, vancomycin]
[2]
  bacterial growth over time (OD): re-growth of bacteria

## lysozyme [free lysozyme]
[3]
  MIC towards E. coli: > 2 mg
[4]
  bacterial growth over time (OD): time dependent bacterial growth

## spinosad
[5]; at 5 min
  spinosad released: 2.4%
[5]; at 540 min
  cumulative release of spinosad: less than 8%
[6]
  UV degradation (HPLC degradation peak): UV labile
[7]
  LC50 value to larval cattle ticks: 54 ppm
  LC99 value to larval cattle ticks: 196 ppm
